Where two headings read alike, the source gives them in different places.
Key:
human NK1 receptor = human NK1 receptor (Homo sapiens, UniProt P25103); assay: NK1 receptor binding, [3H]substance P displacement, CHO cell membranes
[1] = target: T1, Recombinant human NK3 (hNK3) receptor (Homo sapiens, UniProt P29371); assay: NK3 receptor binding, [3H]SR142801 displacement, membrane preparations
T1 construct: expressed in transfected cells
T1 sequence (P29371 1-465): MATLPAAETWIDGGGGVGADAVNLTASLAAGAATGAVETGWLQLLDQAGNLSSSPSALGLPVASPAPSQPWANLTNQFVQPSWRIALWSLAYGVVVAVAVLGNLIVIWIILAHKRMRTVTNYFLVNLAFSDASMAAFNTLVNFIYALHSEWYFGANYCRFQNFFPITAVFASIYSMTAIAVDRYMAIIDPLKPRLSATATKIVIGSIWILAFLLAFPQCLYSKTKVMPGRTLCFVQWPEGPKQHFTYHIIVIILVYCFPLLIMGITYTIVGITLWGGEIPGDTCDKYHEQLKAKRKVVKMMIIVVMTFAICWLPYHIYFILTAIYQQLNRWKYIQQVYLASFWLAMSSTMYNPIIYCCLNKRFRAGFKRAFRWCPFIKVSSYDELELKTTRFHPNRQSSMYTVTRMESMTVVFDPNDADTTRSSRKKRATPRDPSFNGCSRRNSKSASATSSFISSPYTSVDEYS
Summary of the method: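 hNK3 membranes (~2.5 μg/well) incubated 90 min at room temperature in 50 mM Tris-HCl pH 7.4 with 0.1% BSA, 4 mM MnCl2, 1 μM phosphoramidon. Nonspecific binding defined with 10 μM SB222200; bound [3H]SR142801 separated by filtration on PEI-soaked GF/C filters and counted by scintillation.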

[2] = first value of the cell pKi NK1/NK3, human NK1 receptor, [3H]substance P
[3] = second value of the cell pKi NK1/NK3, hNK3 receptor, [3H]SR142801
[4] = first value of the cell NK1/NK3, read-out: pKi NK1 (converted)
[5] = second value of the cell NK1/NK3, read-out: pKi NK3 (converted)

Sequence of human NK1 receptor (P25103 whole entry): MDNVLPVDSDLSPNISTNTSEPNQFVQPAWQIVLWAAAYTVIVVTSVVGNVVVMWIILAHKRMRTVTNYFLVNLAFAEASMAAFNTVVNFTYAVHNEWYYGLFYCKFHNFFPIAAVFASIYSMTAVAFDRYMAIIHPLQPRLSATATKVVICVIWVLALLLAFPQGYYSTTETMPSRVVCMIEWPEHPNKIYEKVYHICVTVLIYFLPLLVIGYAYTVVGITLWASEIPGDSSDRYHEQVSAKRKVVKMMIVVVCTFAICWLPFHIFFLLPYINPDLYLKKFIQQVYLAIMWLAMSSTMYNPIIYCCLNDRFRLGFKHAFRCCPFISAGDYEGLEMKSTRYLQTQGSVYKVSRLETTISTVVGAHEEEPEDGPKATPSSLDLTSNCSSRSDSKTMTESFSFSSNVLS

Work on `CN(C(=O)C(C)(C)c1cc(C(F)(F)F)cc(C(F)(F)F)c1)c1cnc(N2CC[C@H](O)[C@H](O)C2)cc1-c1ccccc1Cl` (racemic) [Example 187, (3RS,4SR)-2-(3,5-Bis-trifluoromethyl-phenyl)-N-[4′-(2-chloro-phenyl)-3,4-dihydroxy-3,4,5,6-tetrahydro-2H-[1,2′]bipyridinyl-5′-yl]-N-methyl-isobutyramide] yielded a Ki (human NK1 receptor; [2]) of 1.66 nM and a Ki [1, 3] of 25.7 nM.
Compound `CN(C(=O)C(C)(C)c1cc(C(F)(F)F)cc(C(F)(F)F)c1)c1cnc(N2C[C@@H](O)C[C@H]2CO)cc1-c1cccnc1Cl` [Example 254, (2S,4S)-2-(3,5-Bis-trifluoromethyl-phenyl)-N-[2-chloro-6′-(4-hydroxy-2-hydroxymethyl-pyrrolidin-1-yl)-[3,4′]bipyridinyl-3′-yl]-N-methyl-isobutyramide] has a Ki (human NK1 receptor; [4]) of 0.977 nM and a Ki [1, 5] of 3.09 nM.
`CN(C(=O)C(C)(C)c1cc(C(F)(F)F)cc(C(F)(F)F)c1)c1cnc(N2CC[C@H](O)[C@H]2CO)cc1-c1ccc(F)cc1CO` [Example 274, (2R,3S)-2-(3,5-Bis-trifluoromethyl-phenyl)-N-[4-(4-fluoro-2-hydroxymethyl-phenyl)-6-(3-hydroxy-2-hydroxymethyl-pyrrolidin-1-yl)-pyridin-3-yl]-N-methyl-isobutyramide] showed a Ki (human NK1 receptor; [4]) of 1.29 nM and a Ki [1, 5] of 1.51 nM.
In the case of `CN(C(=O)C(C)(C)c1cc(C(F)(F)F)cc(C(F)(F)F)c1)c1cnc(N2CC[C@H](O)[C@@H](CO)C2)cc1-c1ccccc1Cl` (racemic) [Example 193, (3RS,4SR)-2-(3,5-Bis-trifluoromethyl-phenyl)-N-[4′-(2-chloro-phenyl)-4-hydroxy-3-hydroxymethyl-3,4,5,6-tetrahydro-2H-[1,2′]bipyridinyl-5′-yl]-N-methyl-isobutyramide], the Ki (human NK1 receptor; [2]) is reported as 1.45 nM and the Ki [1, 3] is reported as 12 nM.
Work on `COc1cc(Cl)cc(C(C)(C)C(=O)N(C)c2cnc(N3C[C@H](O)C[C@H]3CO)cc2-c2ccccc2C)c1` [Example 18, (2S,4R)-2-(3-Chloro-5-methoxy-phenyl)-N-[6-(4-hydroxy-2-hydroxymethyl-pyrrolidin-1-yl)-4-o-tolyl-pyridin-3-yl]-N-methyl-isobutyramide] yielded a Ki (human NK1 receptor; [2]) of 1.17 nM and a Ki [1, 3] of 2.51 nM.
`CC(=O)N(C)[C@H]1CCN(c2cc(-c3ccc(F)cc3C)c(N(C)C(=O)C(C)(C)c3cc(C(F)(F)F)cc(C(F)(F)F)c3)cn2)C1` [Example 107, (S)-N-[6-[3-(Acetyl-methyl-amino)-pyrrolidin-1-yl]-4-(4-fluoro-2-methyl-phenyl)-pyridin-3-yl]-2-(3,5-bis-trifluoromethyl-phenyl)-N-methyl-isobutyramide] showed a Ki (human NK1 receptor; [2]) of 2.34 nM and a Ki [1, 3] of 11.7 nM.
In the case of `Cc1ccccc1-c1cc(N2CC[C@@H](O)[C@H](O)C2)ncc1N(C)C(=O)C(C)(C)c1cc(C(F)(F)F)cc(C(F)(F)F)c1` (racemic) [Example 186, (3RS,4RS)-2-(3,5-Bis-trifluoromethyl-phenyl)-N-(3,4-dihydroxy-4′-o-tolyl-3,4,5,6-tetrahydro-2H-[1,2′]bipyridinyl-5′-yl)-N-methyl-isobutyramide], the Ki (human NK1 receptor; [2]) is reported as 1.41 nM and the Ki [1, 3] is reported as 12.3 nM.
With `CN(C(=O)C(C)(C)c1cc(C(F)(F)F)cc(C(F)(F)F)c1)c1cnc(N2C[C@@H](O)C[C@H]2CO)cc1-c1ccccc1C#N` [Example 245, (2S,4S)-2-(3,5-Bis-trifluoromethyl-phenyl)-N-[4-(2-cyano-phenyl)-6-(4-hydroxy-2-hydroxymethyl-pyrrolidin-1-yl)-pyridin-3-yl]-N-methyl-isobutyramide] the Ki (human NK1 receptor; [4]) was 1.2 nM and the Ki [1, 5] was 1.1 nM.
`CC(C)C[C@@H](CO)Nc1cc(-c2ccccc2Cl)c(N(C)C(=O)C(C)(C)c2cc(C(F)(F)F)cc(C(F)(F)F)c2)cn1` [Example 59, (S)-2-(3,5-Bis-trifluoromethyl-phenyl)-N-[4-(2-chloro-phenyl)-6-(1-hydroxymethyl-3-methyl-butylamino)-pyridin-3-yl]-N-methyl-isobutyramide] gave a Ki (human NK1 receptor; [2]) of 3.24 nM and a Ki [1, 3] of 4.9 nM.
Compound `CN(C(=O)C(C)(C)c1cc(C(F)(F)F)cc(C(F)(F)F)c1)c1cnc(N2CCC[C@@H](O)[C@H]2CO)cc1-c1ccccc1Cl` (racemic) [Example 195, (2RS,3RS)-2-(3,5-Bis-trifluoromethyl-phenyl)-N-[4′-(2-chloro-phenyl)-3-hydroxy-2-hydroxymethyl-3,4,5,6-tetrahydro-2H-[1,2′]bipyridinyl-5′-yl]-N-methyl-isobutyramide] has a Ki (human NK1 receptor; [2]) of 1.82 nM and a Ki [1, 3] of 28.8 nM.
For `CN(C(=O)C(C)(C)c1cc(C(F)(F)F)cc(C(F)(F)F)c1)c1cnc(N2CC[C@@H](O)C2)cc1-c1ccccc1Cl` [Example 47, (R)-2-(3,5-Bis-trifluoromethyl-phenyl)-N-[4-(2-chloro-phenyl)-6-(3-hydroxy-pyrrolidin-1-yl)-pyridin-3-yl]-N-methyl-isobutyramide], the Ki (human NK1 receptor; [2]) was 1.95 nM and the Ki [1, 3] was 6.31 nM.
In the case of `Cc1ccccc1-c1cc(N2CCOC(CO)C2)ncc1N(C)C(=O)C(C)(C)c1cc(C(F)(F)F)cc(C(F)(F)F)c1` (racemic) [Example 176, (RS)-2-(3,5-Bis-trifluoromethyl-phenyl)-N-[6-(2-hydroxymethyl-morpholin-4-yl)-4-o-tolyl-pyridin-3-yl]-N-methyl-isobutyramide], the Ki (human NK1 receptor; [2]) is reported as 2.09 nM and the Ki [1, 3] is reported as 26.3 nM.
`CC(=O)N[C@H]1CCN(c2cc(-c3ccc(F)cc3C)c(N(C)C(=O)C(C)(C)c3cc(C(F)(F)F)cc(C(F)(F)F)c3)cn2)C1` [Example 99, (S)-N-[6-(3-Acetylamino-pyrrolidin-1-yl)-4-(4-fluoro-2-methyl-phenyl)-pyridin-3-yl]-2-(3,5-bis-trifluoromethyl-phenyl)-N-methyl-isobutyramide] showed a Ki (human NK1 receptor; [2]) of 0.813 nM and a Ki [1, 3] of 55 nM.
Compound `CN(C(=O)C(C)(C)c1cc(C(F)(F)F)cc(C(F)(F)F)c1)c1cnc(N2CC[C@H](O)[C@H]2CO)cc1-c1ccccc1Cl` [Example 138, (2R,3S)-2-(3,5-Bis-trifluoromethyl-phenyl)-N-[4-(2-chloro-phenyl)-6-(3-hydroxy-2-hydroxymethyl-pyrrolidin-1-yl)-pyridin-3-yl]-N-methyl-isobutyramide] has a Ki (human NK1 receptor; [2]) of 1.66 nM and a Ki [1, 3] of 1 nM.
For `Cc1ccccc1-c1cc(N2CC[C@H](O)C[C@@H]2CO)ncc1N(C)C(=O)C(C)(C)c1cc(C(F)(F)F)cc(C(F)(F)F)c1` (racemic) [Example 190, (2RS,4SR)-2-(3,5-Bis-trifluoromethyl-phenyl)-N-(4-hydroxy-2-hydroxymethyl-4′-o-tolyl-3,4,5,6-tetrahydro-2H-[1,2′]bipyridinyl-5′-yl)-N-methyl-isobutyramide], the Ki (human NK1 receptor; [2]) was 1.58 nM and the Ki [1, 3] was 4.07 nM.
Work on `Cc1cc(F)ccc1-c1cc(N2[C@H](CO)CC[C@@H]2CO)ncc1N(C)C(=O)C(C)(C)c1cc(C(F)(F)F)cc(C(F)(F)F)c1` [Example 197, (2R,5S)-N-[6-(2,5-Bis-hydroxymethyl-pyrrolidin-1-yl)-4-(4-fluoro-2-methyl-phenyl)-pyridin-3-yl]-2-(3,5-bis-trifluoromethyl-phenyl)-N-methyl-isobutyramide] yielded a Ki (human NK1 receptor; [2]) of 2.88 nM and a Ki [1, 3] of 3.89 nM.
`Cc1c(F)cccc1-c1cc(N2CC[C@H](O)[C@H]2CO)ncc1N(C)C(=O)C(C)(C)c1cc(C(F)(F)F)cc(C(F)(F)F)c1` [Example 275, (2R,3S)-2-(3,5-Bis-trifluoromethyl-phenyl)-N-[4-(3-fluoro-2-methyl-phenyl)-6-(3-hydroxy-2-hydroxymethyl-pyrrolidin-1-yl)-pyridin-3-yl]-N-methyl-isobutyramide] was tested, and the Ki (human NK1 receptor; [4]) was 1.48 nM and the Ki [1, 5] was 0.575 nM.
`Cc1cc(F)ccc1-c1cc(N2[C@H](CO)CC[C@H]2CO)ncc1N(C)C(=O)C(C)(C)c1cc(C(F)(F)F)cc(C(F)(F)F)c1` [Example 198, (2S,5S)-N-[6-(2,5-Bis-hydroxymethyl-pyrrolidin-1-yl)-4-(4-fluoro-2-methyl-phenyl)-pyridin-3-yl]-2-(3,5-bis-trifluoromethyl-phenyl)-N-methyl-isobutyramide] showed a Ki (human NK1 receptor; [2]) of 1.78 nM and a Ki [1, 3] of 1.1 nM.
`CCCN(CCO)c1cc(-c2ccccc2Cl)c(N(C)C(=O)C(C)(C)c2cc(C(F)(F)F)cc(C(F)(F)F)c2)cn1` [Example 56, 2-(3,5-Bis-trifluoromethyl-phenyl)-N-{4-(2-chloro-phenyl)-6-[(2-hydroxy-ethyl)-propyl-amino]-pyridin-3-yl}-N-methyl-isobutyramide] was tested, and the Ki (human NK1 receptor; [2]) was 4.57 nM and the Ki [1, 3] was 5.25 nM.
`Cc1ccccc1-c1cc(N(C)CCO)ncc1N(C)C(=O)C(C)(C)c1cc(C(F)(F)F)cc(C(F)(F)F)c1` [Example 117, 2-(3,5-Bis-trifluoromethyl-phenyl)-N-{6-[(2-hydroxy-ethyl)-methyl-amino]-4-o-tolyl-pyridin-3-yl}-N-methyl-isobutyramide] was tested, and the Ki (human NK1 receptor; [2]) was 2.09 nM and the Ki [1, 3] was 3.09 nM.
Compound `CN(C(=O)C(C)(C)c1cc(C(F)(F)F)cc(C(F)(F)F)c1)c1cnc(N2CCC[C@H]2CO)cc1-c1cc(Cl)ccc1Cl` [Example 284, (S)-2-(3,5-Bis-trifluoromethyl-phenyl)-N-[4-(2,5-dichloro-phenyl)-6-(2-hydroxymethyl-pyrrolidin-1-yl)-pyridin-3-yl]-N-methyl-isobutyramide] has a Ki (human NK1 receptor; [4]) of 1.48 nM and a Ki [1, 5] of 1.45 nM.

Source: patent US8404708B2, “Dual NK1/NK3 receptor antagonists” (Hoffmann-La Roche Inc., priority 2004, dated 2013)
